PMC9000710, “Synthesis and Hemostatic Activity of New Amide Derivatives” (Molecules, 2022)
Entries after “also recorded” stand apart in the source; their conditions may differ. Structures can show the parent of a compound that is named as a salt. Where a SMILES comes first, the peptide text is derived from it.

Assays:
[1] = Hemolysis assay (stability of erythrocytes); format: cell-based, human; conditions: male, human, heparinized whole blood diluted with saline (erythrocytes); for hemolysis at 45 min, 5 mg/L / hemolysis at 120 min, 5 mg/L / hemolysis at 240 min, 5 mg/L: c 5 mg/L
Method: Heparinized whole blood was used from a healthy volunteer. The whole blood (10 mL) was diluted with saline solution (90 mL). For each UV-Vis measurement, 2.5 mL of diluted blood was used. For each blood sample, 1 mL of a saline solution containing hydrochlorides 1–8 at concentrations of 5, 50, and 500 mg/L was added. As a control were used blood samples with the addition of 1% solution of DMSO in saline and 1% solution of SDS in saline. In all cases, the measurements were repeated twice for each concentration. […] The cells were centrifuged, and the absorbance of the supernatant, which contained plasma and lysed erythrocytes, was measured at 540 nm. The percentage of lysis was calculated from a standard curve of lysed erythrocytes treated with SDS [52].

human blood plasma [2] = assay: Prothrombin time (PT) clotting assay; format: biochemical
Method: (§1) Human blood plasma was isolated from fresh buffy coats (collected onto the citrate-dextrose solution—ACD) purchased from the Regional Centre of Blood Donation and Blood Treatment in Lodz, Poland. In the isolation procedure, the buffy coats (60 mL units) were divided into volumes of 10 mL and centrifuged (4000 rpm/15 min) in 15 mL tubes. Next, 1 mL solutions of each amide 1–8 were prepared in distilled water at concentrations of 10, 25, and 50 mg/L. Then, 450 μL of plasma and 50 μL of each amide at the tested concentrations were placed into 1.5 mL vials. The vials were vortexed (Vortex Biosan V-1 plus), incubated at 37 °C on a thermoblock (Dry Block Thermostat Biosan TDB-120), and analyzed using a Kselmed K-3002 OPTIC coagulometer (Grudziądz, Poland), based on the manufacturer’s protocols (described below). The control sample was native blood plasma, untreated with any of the examined substances.
(§2) Fifty microliters of control plasma and plasma samples treated with the amides were transferred to measuring cuvettes and placed in the thermoblock module (37 °C) of a coagulometer (KSELMED, K-3002 Optic). Then, 100 μL of Dia-PT reagent (DIAGON Kft. Hungary; cat. no. 81100) was added. Measurements were started immediately.

human blood plasma [3] = assay: Activated partial thromboplastin time (aPTT) clotting assay; format: biochemical; conditions: for aPTT, effect versus control in words: tested at 10, 25, 50 mg/L
Method: as §1
as §2, with “of the” for “of a”, “Then, 50” for “Then, 100”, “of Dia-APTT” for “of Dia-PT”, “no. 72048) was added. The mixture was incubated for 180 s at 37 °C. Finally, 50 μL of reagent Dia-CaCl2 (DIAGON Kft. Hungary; cat. no. 41192)” for “no. 81100)”

human blood plasma [4] = assay: Thrombin time (TT) clotting assay; format: biochemical
Method: as §1
Both 100 μL of control plasma and plasma samples treated with the amides were transferred to measuring cuvettes, which were placed in the thermoblock module (37 °C) of the coagulometer (KSELMED K-3002 Optic). Then, 100 μL of thrombin solution (4.5 U/mL, in 0.9% NaCl; Biomed, Lublin, Poland) was added to the cuvette. Measurements were started immediately.

human blood plasma [5] = assay: Clot formation and fibrinolysis (CFF) assay; format: biochemical; conditions: for Amax (maximum of fibrin clot absorbance at 360 nm) / VmaxC (of Fibrin Polymerization) / VmaxF (of Fibrin Clot Lysis): control plasma assumed as 100%, mean ± SD, n = 5–7; for decrease of VmaxF: concentration not given; for Amax parameter, effect in words: full range of tested concentrations (10–50 µg/mL); for effect on fibrin polymerization (VmaxC) in words: tested at 10, 25, 50 mg/L
Text: The CFF assay enables analysis of both the blood plasma coagulation process and fibrinolysis efficiency. The thrombin enzyme in the reagent mixture initiates blood plasma fibrinogen polymerization, leading to an increase in absorbance in the sample until the maximal absorbance (Amax) is attained. The fibrinolytic activity of blood plasma is induced by the tissue-type plasminogen activator (t-PA). The activation of fibrinolysis in the tested samples leads to fibrin clot degradation and decreases the absorbance to the baseline.
Figure 11 An exemplary curve of blood plasma coagulation and clot lysis recorded during the clot formation and fibrinolysis (CFF) assay. The first step in the CFF test involves activation of the blood plasma coagulation cascade and fibrin clot formation (1). It is characterized by the maximal velocity of the fibrin polymerization parameter (VmaxC). The maximal absorbance (Amax) peak corresponds to the fibrin stabilization phase and is an indicator of fibrin clot thickness (2). The third step of the CFF assay covers the activation of fibrinolytic mechanisms and fibrin clot degradation (3) and is described by the maximal velocity of clot lysis (VmaxF).
Thrombin was purchased from BioMed (Lublin, Poland). A tissue-type plasminogen activator (Actilyse®) was purchased from Boehringer Ingelheim, Ingelheim am Rhein, Germany. Kinetic measurements were executed using a SpectrostarNano microplate spectrophotometer (BMG LabTech, Ortenberg, Germany).
Measurements were performed using a kinetic model, as described in our previous work. Briefly, blood plasma was preincubated with the examined substances (at final concentrations of 10, 25, and 50 mg/L) for 15 min at 37 °C. Then, 100 μL of blood plasma was added to microtiter plate wells, which was followed by 200 μL of the reagent mixture (0.75 U/mL thrombin, 225 ng/mL t-PA and 7.5 mM CaCl2) suspended in tris-buffered saline (0.05 M TBS, 0.9% NaCl; pH 7.4). Measurements of absorbance changes were started immediately and continued for 60 min at 37 °C, λ = 360 nm. The following parameters were used to determine the effects of the examined substances on the coagulation and fibrinolytic properties of the blood plasma: the maximal velocity of fibrinogen polymerization (VmaxC), which is an indicator of the plasma coagulation efficiency; the maximal absorbance (Amax), which is an indicator of the fibrin clot stabilization and its thickness; the maximal velocity of clot lysis (VmaxF), which is an indicator of blood plasma fibrinolytic activity.

Structure (SMILES)	hemolysis at 45 min, 5 mg/L ([1]; 45 min)	hemolysis at 120 min, 5 mg/L ([1]; 120 min)	PT Time [% of Control] (human blood plasma [2]; c 10 mg/L)	PT Time [% of Control] (human blood plasma [2]; c 25 mg/L)	PT Time [% of Control] (human blood plasma [2]; c 50 mg/L)	aPTT Time [% of Control] (human blood plasma [3]; c 10 mg/L)	aPTT Time [% of Control] (human blood plasma [3]; c 25 mg/L)	aPTT Time [% of Control] (human blood plasma [3]; c 50 mg/L)	TT Time [% of Control] (human blood plasma [4]; c 10 mg/L)	TT Time [% of Control] (human blood plasma [4]; c 25 mg/L)	TT Time [% of Control] (human blood plasma [4]; c 50 mg/L)	Amax (maximum of fibrin clot absorbance at 360 nm) (human blood plasma [5]; 10 mg/L)	VmaxC (of Fibrin Polymerization) (human blood plasma [5]; 10 mg/L)	VmaxF (of Fibrin Clot Lysis) (human blood plasma [5]; 10 mg/L)	Amax (maximum of fibrin clot absorbance at 360 nm) (human blood plasma [5]; 25 mg/L)	VmaxC (of Fibrin Polymerization) (human blood plasma [5]; 25 mg/L)	VmaxF (of Fibrin Clot Lysis) (human blood plasma [5]; 25 mg/L)	Amax (maximum of fibrin clot absorbance at 360 nm) (human blood plasma [5]; 50 mg/L)	VmaxC (of Fibrin Polymerization) (human blood plasma [5]; 50 mg/L)	VmaxF (of Fibrin Clot Lysis) (human blood plasma [5]; 50 mg/L)	other results
NCC(=O)NCC1CCC(C(=O)O)CC1 (centres unmarked) [Amide 7, 2-((((1s,4s)-4-Carboxycyclohexyl)methyl)amino)-2-oxoethanaminium chloride]	0%	0.21%	95.4 ± 7.4 % of Control	94.3 ± 9.7 % of Control	95.3 ± 8.3 % of Control	98.1 ± 4.6 % of Control	99.3 ± 3.3 % of Control	100.6 ± 4.9 % of Control	97.2 ± 3.3 % of Control	97.5 ± 2.5 % of Control	96.9 ± 1.7 % of Control	115.64 ± 11.61 %	106.86 ± 9.49%	66.18 ± 21.32 %	120.06 ± 25.63 %	104.39 ± 8.60%	62.99 ± 16.99 %	113.54 ± 13.76 %	111.45 ± 8.07 %	87.27 ± 8.04%	hemolysis at 240 min, 5 mg/L ([1]; 240 min): 0.21%; hemolysis at 45 min, 50 mg/L ([1]; c 50 mg/L as printed in the third concentration block of amides 7 and 8, 45 min): 0%; hemolysis at 120 min, 50 mg/L ([1]; c 50 mg/L as printed in the third concentration block of amides 7 and 8, 120 min): 0.23%; hemolysis at 240 min, 50 mg/L ([1]; c 50 mg/L as printed in the third concentration block of amides 7 and 8, 240 min): 0.38%; hemolysis at 45 min, 50 mg/L ([1]; c 50 mg/L, 45 min): 0.41%; hemolysis at 120 min, 50 mg/L ([1]; c 50 mg/L, 120 min): 0.97%; hemolysis at 240 min, 50 mg/L ([1]; c 50 mg/L, 240 min): 0.64%; hemolysis at 45 min, 500 mg/L ([1]; c 500 mg/L, 45 min): 0%; decrease of VmaxF (human blood plasma [5]): 30–40%; Amax parameter, effect in words (human blood plasma [5]): significantly higher
Cl.NCCCCCC(=O)NCCCCCC(=O)O [Amide 4, 6-(6-Aminohexanamido)hexanoic acid hydrochloride]	1%	0.74%	97.3 ± 4.2 % of Control	95.4 ± 2.3 % of Control	93.7 ± 3.0 % of Control	98.1 ± 5.2 % of Control	97.4 ± 5.4 % of Control	99.9 ± 6.0 % of Control	96.3 ± 6.9 % of Control	95.5 ± 8.8 % of Control	97.6 ± 5.0 % of Control	115.37 ± 8.73 %	107.93 ± 7.23 %	81.36 ± 21.07 %	114.07 ± 15.71%	105.85 ± 7.85%	70.35 ± 16.30 %	109.29 ± 9.02 %	105.89 ± 5.64%	55.95 ± 10.51 %	hemolysis at 240 min, 5 mg/L ([1]; 240 min): 0.27%; hemolysis at 45 min, 50 mg/L ([1]; c 50 mg/L, 45 min): 0%; hemolysis at 120 min, 50 mg/L ([1]; c 50 mg/L, 120 min): 0.71%; hemolysis at 240 min, 50 mg/L ([1]; c 50 mg/L, 240 min): 0.32%; hemolysis at 45 min, 500 mg/L ([1]; c 500 mg/L, 45 min): 0.38%; hemolysis at 120 min, 500 mg/L ([1]; c 500 mg/L, 120 min): 0.21%; hemolysis at 240 min, 500 mg/L ([1]; c 500 mg/L, 240 min): 0.22%; prothrombin time, effect versus control in words (human blood plasma [2]; two higher concentrations (25 and 50 mg/L)): significantly decreased; decrease of VmaxF (human blood plasma [5]): 30–40%
NC[C@H]1CC[C@H](C(=O)O)CC1 [TA, trans-4-(aminomethyl)cyclohexane carboxylic acid, reference compound]	–	–	–	–	–	–	–	–	–	–	–	106.67 ± 3.79 %	101.38 ± 7.89%	total inhibition	105.87 ± 6.23%	104.75 ± 9.98%	total inhibition	106.64 ± 4.65 %	104.85 ± 12.06%	total inhibition	prothrombin time, effect versus control in words (human blood plasma [2]; concentration not specified (10, 25, 50 mg/L tested), listed as tranexamic acid): slightly shortened; also recorded: slightly but statistically significantly reduced; prothrombin time, effect versus control in words (human blood plasma [2]; two lower concentrations (10 and 25 mg/L)): decreased; aPTT, effect versus control in words (human blood plasma [3]): significantly decreased; aPTT, effect versus control in words (human blood plasma [3]; listed as tranexamic acid): slightly shortened; TT, effect versus control in words (human blood plasma [4]; all used concentrations (10, 25, 50 mg/L)): no effects; effect on fibrin polymerization (VmaxC) in words (human blood plasma [5]): did not influence
NCC(=O)NCC(=O)O [Amide 5, Glycylglycine hydrochloride] (H-Gly-Gly-OH)	–	–	95.0 ± 10.5 % of Control	92.0 ± 8.5 % of Control	93.0 ± 8.3 % of Control	98.8 ± 5.8 % of Control	101.1 ± 4.9 % of Control	100.8 ± 2.6 % of Control	99.1 ± 6.1 % of Control	99.0 ± 4.7 % of Control	97.8 ± 3.3 % of Control	106.44 ± 1.78 %	105.80 ± 2.97 %	90.08 ± 13.68%	107.12 ± 4.65 %	105.88 ± 3.76 %	85.12 ± 16.98 %	113.43 ± 7.86 %	109.83 ± 1.46 %	89.46 ± 10.48 %	procoagulant activity judged from VmaxC and Amax, in words (human blood plasma [5]; among the tested compounds): most evident procoagulant activity; Amax parameter, effect in words (human blood plasma [5]): significantly higher; effect on fibrin polymerization (VmaxC) in words (human blood plasma [5]): Mild pro-coagulant effects
